In patent US5132401A (George Washington University, Office of Sponsored Research, priority 1989, dated 1992):

Tested on: anterior pituitary cells
Assay: PRL assay: in vitro prolactin release from normal anterior pituitary cells, RIA
Type: cell-based, Sprague-Dawley rats
Conditions: maximum stimulatory concentration of TRH (100 nM); FIG. 12
Protocol: Inhibitory neurohormones and drugs were added during the final 20 minutes of the second rinse. […] After incubations, the medium is quickly removed and saved for radioimmunoassay (RIA).
PRL and GH were determined by standard RIA techniques (media diluted 1:30, 25-70 μl samples) using materials and protocols supplied by the NIDDK Rat Pituitary Hormone Distribution Program. Inter- and intra-assay variations for PRL and GH were less than 8% to 10%, respectively. All samples were assayed in duplicate, with results expressed in terms of NIDDK standards (rat PRL RP-2 and rat GH RP-1).

NC(=O)[C@@H]1CCCN1C(=O)[C@H](Cc1cnc[nH]1)NC(=O)[C@@H]1CCC(=O)N1 [TRH, thyrotropin releasing hormone]
increase in PRL release compared to the control value: 480%
